# Earlier results as cited in patent publication US10413531B2, “Methods of treating bladder cancer” (Abraxis BioScience, LLC, priority 2013, dated 2019).
# Tests used:
# [1] = test system: ABCB1/ABCG2; conditions: Lin et al. (2013) Int J Cancer
# [2] = Lin et al. (2013) Int J Cancer
smiles,measurement,setting,value
COc1ccc(COc2cc3oc(=O)c4cc(C(C)O)ccc4c3cc2OC)cc1 (centres unmarked) [Palomid 529],affinity for ABCB1/ABCG2,[1],lacks affinity for ABCB1/ABCG2
same,brain penetration,[2],good brain penetration
